Data taken from patent publication US12486269B2 (Aconcagua Bio, Inc., priority 2024, dated 2025).

Tests used:
[1] = target: T1, COS-7/AMY3 (human calcitonin receptor (CTR) and RAMP3) (Homo sapiens, UniProt O60896+P30988); assay: Amylin Receptor cAMP Assay II; format: cell-based; conditions: values marked **: Amylin Receptor cAMP Assay II; COS-7/AMY3 cells, cAMP dynamic 2 kit, 30 min; read-out: Amylin Receptor cAMP Stimulation Activity: EC50
T1 construct: expressed in transfected cells; host or cells: COS-7
T1 sequence (O60896 24-148, one chain of several): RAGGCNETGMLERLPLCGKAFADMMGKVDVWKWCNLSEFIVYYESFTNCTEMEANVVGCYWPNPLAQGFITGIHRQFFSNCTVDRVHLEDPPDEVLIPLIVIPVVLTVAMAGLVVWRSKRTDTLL
Method in brief: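 Agonist-induced cAMP was quantified by HTRF ratio at 665/615 nm and expressed as % of the window from vehicle to MAX control. Stimulation lasted 30 min at 37 °C in HBSS/20 mM HEPES/0.5 mM IBMX/0.1% casein, using stable human CTR+RAMP3 (AMY3) COS-7 cells at 2000 per well.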

[2] = target: T2, human calcitonin receptor (CTR) (Homo sapiens, UniProt P30988); assay: Calcitonin Receptor (CTR) cAMP Assay; format: cell-based; conditions: COS7-human CTR Clone #2 stable cell line, cAMP dynamic 2 kit, 30 min; read-out: Calcitonin Receptor cAMP Stimulation Activity: EC50
T2 construct: expressed in transfected cells; host or cells: COS-7 (COS7-human CTR Clone #2)
T2 sequence (P30988 25-474): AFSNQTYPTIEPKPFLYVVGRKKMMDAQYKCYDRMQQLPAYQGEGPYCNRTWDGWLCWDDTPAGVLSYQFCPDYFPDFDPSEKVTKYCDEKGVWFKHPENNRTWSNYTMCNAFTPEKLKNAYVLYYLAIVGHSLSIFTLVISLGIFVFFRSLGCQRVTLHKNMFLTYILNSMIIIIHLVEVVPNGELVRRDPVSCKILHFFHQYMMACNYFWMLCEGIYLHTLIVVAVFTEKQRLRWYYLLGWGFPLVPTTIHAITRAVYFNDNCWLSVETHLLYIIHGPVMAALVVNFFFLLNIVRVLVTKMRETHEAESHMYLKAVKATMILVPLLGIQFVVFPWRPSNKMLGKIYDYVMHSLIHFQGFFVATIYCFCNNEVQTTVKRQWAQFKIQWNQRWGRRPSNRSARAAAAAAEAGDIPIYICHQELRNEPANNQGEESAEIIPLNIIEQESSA
Method in brief: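 cAMP accumulation was measured by HTRF cAMP dynamic 2 read at 665/615 nm, 1 h at room temperature, with results scaled between vehicle and positive control. Before detection, COS7-human CTR stable cells were stimulated 30 min at 37 °C with compound (4-fold dilutions) in IBMX-containing HBSS/HEPES/casein buffer.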

EC50 [1] [nM] | EC50 [2] [nM] | SMILES
62800 | 857 | Cn1cc(Cc2nccc3cc(-c4c5c(nc(CCc6ccc(F)cc6)c4-c4n[nH]c(=O)o4)[C@@H]4CCCN4C5=O)sc23)c2ccccc21 [Compound 249, (S)-5-(2-(4-fluorophenethyl)-4-(7-((1-methyl-1H-indol-3-yl)methyl)thieno[2,3-c]pyridin-2-yl)-5-oxo-7,8,9,9a-tetrahydro-5H-pyrido[2,3-a]pyrrolizin-3-yl)-1,3,4-oxadiazol-2(3H)-one]
1340 | 152 | COc1cccc2c1CC[C@H]2Nc1cc(C(F)(F)F)cn2cc(-c3c4c(nc(CCc5ccc(F)cc5)c3-c3n[nH]c(=O)o3)[C@@H]3CCCN3C4=O)nc12 [Compound 216, 5-((S)-2-(4-fluorophenethyl)-4-(8-(((R)-4-methoxy-2,3-dihydro-1H-inden-1-yl)amino)-6-(trifluoromethyl)imidazo[1,2-a]pyridin-2-yl)-5-oxo-7,8,9,9a-tetrahydro-5H-pyrido[2,3-a]pyrrolizin-3-yl)-1,3,4-oxadiazol-2(3H)-one]
6.78 | 0.219 | O=C1c2c(nc(CCc3ccc(F)cc3)c(-c3n[nH]c(=O)o3)c2-c2cc3ccnc(N[C@@H]4CCc5ccc(F)cc54)c3s2)[C@@H]2CCCN12 [Compound 246, 5-((S)-4-(7-(((R)-6-fluoro-2,3-dihydro-1H-inden-1-yl)amino)thieno[2,3-c]pyridin-2-yl)-2-(4-fluorophenethyl)-5-oxo-7,8,9,9a-tetrahydro-5H-pyrido[2,3-a]pyrrolizin-3-yl)-1,3,4-oxadiazol-2(3H)-one]
113 | 53.5 | O=C1c2c(nc(CCc3ccc(F)cc3)c(-c3noc(=O)[nH]3)c2-c2cc3ccnc(N4CCCC4c4ccc(F)c(F)c4)c3s2)[C@@H]2CCCN12 (stereo partly drawn) [Compound 117]
14.6 | 0.836 | COc1cccc2c1CC[C@H]2Nc1nccc2cc(-c3c4c(nc(CCc5ccc(F)cc5)c3-c3n[nH]c(=O)s3)[C@@H]3CCCN3C4=O)sc12 [Compound 225, 5-((S)-2-(4-fluorophenethyl)-4-(7-(((R)-4-methoxy-2,3-dihydro-1H-inden-1-yl)amino)thieno[2,3-c]pyridin-2-yl)-5-oxo-7,8,9,9a-tetrahydro-5H-pyrido[2,3-a]pyrrolizin-3-yl)-1,3,4-thiadiazol-2(3H)-one]
22.7 | 1.16 | COc1ccc(CCc2nc3c(c(-c4cc5ccnc(N[C@@H]6CCc7c(OC)cccc76)c5s4)c2-c2n[nH]c(=O)o2)C(=O)N2CCC[C@@H]32)cc1F [Compound 244, 5-((S)-2-(3-fluoro-4-methoxyphenethyl)-4-(7-(((R)-4-methoxy-2,3-dihydro-1H-inden-1-yl)amino)thieno[2,3-c]pyridin-2-yl)-5-oxo-7,8,9,9a-tetrahydro-5H-pyrido[2,3-a]pyrrolizin-3-yl)-1,3,4-oxadiazol-2(3H)-one]
0.368 | 0.0207 | COc1c(F)ccc2c1CC[C@H]2Nc1nccc2cc(-c3c4c(nc(CCc5cccc(Cl)c5)c3-c3n[nH]c(=O)o3)C35CC(CN3C4=O)C5)sc12 [Compound 277, (R)-5-(2-(3-chlorophenethyl)-4-(7-((5-fluoro-4-methoxy-2,3-dihydro-1H-inden-1-yl)amino)thieno[2,3-c]pyridin-2-yl)-5-oxo-8,9-dihydro-5H,7H-8,9a-methanopyrido[2,3-a]pyrrolizin-3-yl)-1,3,4-oxadiazol-2(3H)-one]
75.7 | 5.12 | N#Cc1ccc(Cn2c(=O)oc3cc(-c4c(-c5n[nH]c(=O)o5)c(CCc5ccc(F)cc5)nc5c4S(=O)(=O)CC54CC4)ccc32)nc1 [Compound 238, 6-((6-(5′-(4-fluorophenethyl)-1′,1′-dioxido-6′-(5-oxo-4,5-dihydro-1,3,4-oxadiazol-2-yl)-2′H-spiro[cyclopropane-1,3′-thieno[3,2-b]pyridin]-7′-yl)-2-oxobenzo[d]oxazol-3(2H)-yl)methyl)nicotinonitrile]
253 | 25.6 | O=C(c1ccc(-c2c3c(nc(CCc4ccc(F)cc4)c2-c2noc(=O)[nH]2)[C@@H]2CCCN2C3=O)s1)N1CCCC1c1ccc(F)c(F)c1 (stereo partly drawn) [Compound 116]
50.7 | 0.702 | COc1cccc2c1CC[C@H]2Nc1nccc2cc(-c3c4c(nc(C[C@H]5CCc6cc(F)ccc65)c3-c3n[nH]c(=O)o3)[C@@H]3CCCN3C4=O)sc12 [Compound 224, 5-((S)-2-(((R)-5-fluoro-2,3-dihydro-1H-inden-1-yl)methyl)-4-(7-(((R)-4-methoxy-2,3-dihydro-1H-inden-1-yl)amino)thieno[2,3-c]pyridin-2-yl)-5-oxo-7,8,9,9a-tetrahydro-5H-pyrido[2,3-a]pyrrolizin-3-yl)-1,3,4-oxadiazol-2(3H)-one]
0.517 | 0.0636 | COc1c(F)ccc2c1CC[C@H]2Nc1nccc2cc(-c3c4c(nc(CCc5ccccc5Cl)c3-c3n[nH]c(=O)o3)C35CC(CN3C4=O)C5)sc12 [Compound 278, (R)-5-(2-(2-chlorophenethyl)-4-(7-((5-fluoro-4-methoxy-2,3-dihydro-1H-inden-1-yl)amino)thieno[2,3-c]pyridin-2-yl)-5-oxo-8,9-dihydro-5H,7H-8,9a-methanopyrido[2,3-a]pyrrolizin-3-yl)-1,3,4-oxadiazol-2(3H)-one]
50.5 | 0.711 | COc1cccc2c1CC[C@H]2Nc1nccc2cc(-c3c4c(nc(CCc5ccccc5C(F)(F)F)c3-c3noc(=O)[nH]3)[C@@H]3CCCN3C4=O)sc12 [Compound 125, 3-((S)-4-(7-(((R)-4-methoxy-2,3-dihydro-1H-inden-1-yl)amino)thieno[2,3-c]pyridin-2-yl)-5-oxo-2-(2-(trifluoromethyl)phenethyl)-7,8,9,9a-tetrahydro-5H-pyrido[2,3-a]pyrrolizin-3-yl)-1,2,4-oxadiazol-5(4H)-one]
51.9 | 2.8 | O=C1c2c(nc(CCc3ccc(F)cc3)c(-c3noc(=O)[nH]3)c2-c2cc3ccnc(NCc4ccc(Cl)c(F)c4)c3s2)[C@@H]2CCCN12 [Compound 147]
1.91 | 0.171 | COc1cc(F)cc2c1CC[C@H]2Nc1nccc2cc(-c3c4c(nc(CCc5ccc(F)cc5)c3-c3n[nH]c(=O)o3)[C@@H]3CCCN3C4=O)sc12 [Compound 258, 5-((S)-4-(7-(((R)-6-fluoro-4-methoxy-2,3-dihydro-1H-inden-1-yl)amino)thieno[2,3-c]pyridin-2-yl)-2-(4-fluorophenethyl)-5-oxo-7,8,9,9a-tetrahydro-5H-pyrido[2,3-a]pyrrolizin-3-yl)-1,3,4-oxadiazol-2(3H)-one]
23.4 | 0.975 | COc1cc(Cl)cc2c1CC[C@H]2Nc1nccc2cc(-c3c4c(nc(CCc5ccc(F)cc5)c3-c3n[nH]c(=O)o3)[C@@H]3CCCN3C4=O)sc12 [Compound 239, 5-((S)-4-(7-(((R)-6-chloro-4-methoxy-2,3-dihydro-1H-inden-1-yl)amino)thieno[2,3-c]pyridin-2-yl)-2-(4-fluorophenethyl)-5-oxo-7,8,9,9a-tetrahydro-5H-pyrido[2,3-a]pyrrolizin-3-yl)-1,3,4-oxadiazol-2(3H)-one]
231 | 15.2 | COc1cccc2c1CC[C@H]2Nc1nccc2cc(-c3c4c(nc(C(C)C)c3-c3n[nH]c(=O)o3)[C@@H]3CCCN3C4=O)sc12 [Compound 185, 5-((S)-2-isopropyl-4-(7-(((R)-4-methoxy-2,3-dihydro-1H-inden-1-yl)amino)thieno[2,3-c]pyridin-2-yl)-5-oxo-7,8,9,9a-tetrahydro-5H-pyrido[2,3-a]pyrrolizin-3-yl)-1,3,4-oxadiazol-2(3H)-one]
48.4 | 13.4 | COc1cccc2c1CC[C@H]2Nc1nccc2cc(-c3c4c(nc(CCc5ccc(F)cc5)c3-c3n[nH]c(=O)o3)[C@H]3CCCN3C4=O)sc12 [Compound 229, 5-((R)-2-(4-fluorophenethyl)-4-(7-(((R)-4-methoxy-2,3-dihydro-1H-inden-1-yl)amino)thieno[2,3-c]pyridin-2-yl)-5-oxo-7,8,9,9a-tetrahydro-5H-pyrido[2,3-a]pyrrolizin-3-yl)-1,3,4-oxadiazol-2(3H)-one]
81.6 | 4.23 | COc1cccc2c1CC(F)(F)[C@H]2Nc1nccc2cc(-c3c4c(nc(CCc5ccc(F)cc5)c3-c3n[nH]c(=O)o3)[C@@H]3COCCN3C4=O)sc12 [Compound 284, (R)-4-(7-(((S)-2,2-difluoro-4-methoxy-2,3-dihydro-1H-inden-1-yl)amino)thieno[2,3-c]pyridin-2-yl)-2-(4-fluorophenethyl)-3-(5-oxo-4,5-dihydro-1,3,4-oxadiazol-2-yl)-7,8,10,10a-tetrahydro-5H-pyrido[2′,3′:3,4]pyrrolo[2,1-c][1,4]oxazin-5-one]
